Key:
human hepatoma G2 cells = test: Cytotoxicity assay (XTT colorimetric), Hep G2; format: cell-based; details: 48 h of drug exposure
rat glioma C6 cells = test: Cytotoxicity assay (XTT colorimetric), C6 cells; format: cell-based; details: 48 h of drug exposure
[1] = system: hepatitis B virus transfected hepatoma cell lines, HepG 2.2.15 cells; test: Cytotoxicity assay, 2.2.15 cells; format: cell-based, human; details: 48 h of drug exposure
[2] = system: transcriptional activity of hTERT; test: SEAP reporter assay of hTERT expression, PhTERT-SEAP (hTERT-BJ1); format: cell-based, human; details: PhTERT-SEAP (hTERT-BJ1)
Method in brief: (§1)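 Cells seeded, grown 24 h at 37° C, refed, then exposed to varying drug amounts for another 24 h. Collected media heated 65° C for 10 min to kill heat-labile phosphatases, mixed with equal SEAP buffer (2 M diethanolamine, 1 mM MgCl2, 20 mM […]) plus 12 mM final p-nitrophenyl phosphate; rate of A405 increase measured.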

[3] = system: transcriptional activity of hTERT; test: SEAP reporter assay of hTERT expression, PhTERT-SEAP (H1299); format: cell-based, human; details: PhTERT-SEAP(hTERT-H1299)
Method in brief: as §1

[4] = system: non-small-cell lung cancer cells H1299; test: MTT relative viability, PhTERT-SEAP (H1299) cells; details: PhTERT-SEAP(hTERT-H1299)
hTERT-BJ1 cells = test: MTT relative viability, PhTERT-SEAP (hTERT-BJ1) cells; details: PhTERT-SEAP (hTERT-BJ1)

O=C(Nc1ccc(NC(=O)c2c(Cl)cc(Cl)cc2Cl)c2c1C(=O)c1ccccc1C2=O)c1c(Cl)cc(Cl)cc1Cl [VI13, 1,4-Bis(2,4,6-trichlorobenzoylamido)-9,10-anthracenedione]
IC50 (human hepatoma G2 cells): 2.77 µM
IC50 (rat glioma C6 cells): > 20 µM
IC50 [1]: 3.63 µM
Relative SEAP activity (%) ([2]; 1.5 μM): 31 ± 23.0%
SEAP/vibility ([2]; 1.5 μM): 0.32
Relative SEAP activity (%) ([2]; 15 μM): 12 ± 12.5%
SEAP/vibility ([2]; 15 μM): 0.19
Relative SEAP activity (%) ([2]; 153 μM): 4 ± 15%
SEAP/vibility ([2]; 153 μM): 0.09
Relative SEAP activity (%) ([3]; 1.5 μM): 98 ± 4.5%
SEAP/vibility ([3]; 1.5 μM): 0.87
Relative SEAP activity (%) ([3]; 15 μM): 66 ± 2.4%
SEAP/vibility ([3]; 15 μM): 0.61
Relative SEAP activity (%) ([3]; 153 μM): 41 ± 3.9%
SEAP/vibility ([3]; 153 μM): 0.03
Relative MTT viability (%) ([4]; 1.5 μM): 113 ± 4.8%
Relative MTT viability (%) ([4]; 15 μM): 107 ± 5.4%
Relative MTT viability (%) ([4]; 153 μM): 20 ± 3.3%
Relative MTT viability (%) (hTERT-BJ1 cells; 1.5 μM): 98 ± 8.5%
Relative MTT viability (%) (hTERT-BJ1 cells; 15 μM): 63 ± 7.0%
Relative MTT viability (%) (hTERT-BJ1 cells; 153 μM): 40 ± 22.2%

O=C(Nc1ccc(NC(=O)c2c(F)ccc(F)c2F)c2c1C(=O)c1ccccc1C2=O)c1c(F)ccc(F)c1F [VI14, 1,4-Bis(2,3,6-trifluorobenzoylamido)-9,10-anthracenedione]
IC50 (human hepatoma G2 cells): > 20 µM
IC50 (rat glioma C6 cells): > 20 µM
IC50 [1]: > 20 µM
Relative SEAP activity (%) ([2]; 1.8 μM): 35 ± 14.1%
SEAP/vibility ([2]; 1.8 μM): 0.35
Relative SEAP activity (%) ([2]; 18 μM): 22 ± 24.4%
SEAP/vibility ([2]; 18 μM): 0.25
Relative SEAP activity (%) ([2]; 180 μM): 31 ± 7.9%
SEAP/vibility ([2]; 180 μM): 0.44
Relative SEAP activity (%) ([3]; 1.8 μM): 91 ± 5.2%
SEAP/vibility ([3]; 1.8 μM): 0.82
Relative SEAP activity (%) ([3]; 18 μM): 97 ± 4.1%
SEAP/vibility ([3]; 18 μM): 1.09
Relative SEAP activity (%) ([3]; 180 μM): 91 ± 3.3%
SEAP/vibility ([3]; 180 μM): 1.64
Relative MTT viability (%) ([4]; 1.8 μM): 111 ± 2.9%
Relative MTT viability (%) ([4]; 18 μM): 89 ± 3.7%
Relative MTT viability (%) ([4]; 180 μM): 55 ± 3.3%
Relative MTT viability (%) (hTERT-BJ1 cells; 1.8 μM): 102 ± 3.3%
Relative MTT viability (%) (hTERT-BJ1 cells; 18 μM): 90 ± 6.0%
Relative MTT viability (%) (hTERT-BJ1 cells; 180 μM): 70 ± 6.8%

O=C(Nc1ccc(NC(=O)c2cc(F)c(F)cc2F)c2c1C(=O)c1ccccc1C2=O)c1cc(F)c(F)cc1F [VI15, 1,4-Bis(2,4,5-trifluorobenzoylamido)-9,10-anthracenedione]
IC50 (human hepatoma G2 cells): > 20 µM
IC50 (rat glioma C6 cells): > 20 µM
IC50 [1]: 3.35 µM
Relative SEAP activity (%) ([2]; 1.6 μM): 117 ± 14.2%
SEAP/vibility ([2]; 1.6 μM): 1.12
Relative SEAP activity (%) ([2]; 16 μM): 114 ± 20.4%
SEAP/vibility ([2]; 16 μM): 1.29
Relative SEAP activity (%) ([2]; 161 μM): 115 ± 30.8%
SEAP/vibility ([2]; 161 μM): 1.44
Relative SEAP activity (%) ([3]; 1.6 μM): 109 ± 10.8%
SEAP/vibility ([3]; 1.6 μM): 1.20
Relative SEAP activity (%) ([3]; 16 μM): 118 ± 10.3%
SEAP/vibility ([3]; 16 μM): 1.45
Relative SEAP activity (%) ([3]; 161 μM): 104 ± 8.2%
SEAP/vibility ([3]; 161 μM): 1.73
Relative MTT viability (%) ([4]; 1.6 μM): 90 ± 6.6%
Relative MTT viability (%) ([4]; 16 μM): 81 ± 1.9%
Relative MTT viability (%) ([4]; 161 μM): 60 ± 5.0%
Relative MTT viability (%) (hTERT-BJ1 cells; 1.6 μM): 104 ± 4.5%
Relative MTT viability (%) (hTERT-BJ1 cells; 16 μM): 89 ± 5.0%
Relative MTT viability (%) (hTERT-BJ1 cells; 161 μM): 80 ± 3.8%

O=C(Nc1ccc(NC(=O)c2ccc(Cl)cc2)c2c1C(=O)c1ccccc1C2=O)c1ccc(Cl)cc1 [VI16, 1,4-Bis(4-chlorobenzoylamido)-9,10-anthracenedione]
IC50 (human hepatoma G2 cells): > 20 µM
IC50 (rat glioma C6 cells): > 20 µM
IC50 [1]: > 20 µM
Relative SEAP activity (%) ([2]; 1.9 μM): 116 ± 28.6%
SEAP/vibility ([2]; 1.9 μM): 1.05
Relative SEAP activity (%) ([2]; 19 μM): 112 ± 21.9%
SEAP/vibility ([2]; 19 μM): 1.09
Relative SEAP activity (%) ([2]; 194 μM): 152 ± 39.7%
SEAP/vibility ([2]; 194 μM): 1.54
Relative SEAP activity (%) ([3]; 1.9 μM): 109 ± 6.8%
SEAP/vibility ([3]; 1.9 μM): 1.23
Relative SEAP activity (%) ([3]; 19 μM): 118 ± 5.6%
SEAP/vibility ([3]; 19 μM): 1.33
Relative SEAP activity (%) ([3]; 194 μM): 116 ± 12.3%
SEAP/vibility ([3]; 194 μM): 1.46
Relative MTT viability (%) ([4]; 1.9 μM): 89 ± 5.5%
Relative MTT viability (%) ([4]; 19 μM): 89 ± 9.5%
Relative MTT viability (%) ([4]; 194 μM): 79 ± 5.6%
Relative MTT viability (%) (hTERT-BJ1 cells; 1.9 μM): 111 ± 0.8%
Relative MTT viability (%) (hTERT-BJ1 cells; 19 μM): 103 ± 5.9%
Relative MTT viability (%) (hTERT-BJ1 cells; 194 μM): 99 ± 5.2%

O=C(Nc1ccc(NC(=O)c2ccc(F)cc2F)c2c1C(=O)c1ccccc1C2=O)c1ccc(F)cc1F [VI18, 1,4-Bis(2,4-difluorobenzoylamido)-9,10-anthracenedione]
IC50 (human hepatoma G2 cells): > 20 µM
IC50 (rat glioma C6 cells): > 20 µM
IC50 [1]: > 20 µM
Relative SEAP activity (%) ([2]; 1.9 μM): 48 ± 21.7%
SEAP/vibility ([2]; 1.9 μM): 0.46
Relative SEAP activity (%) ([2]; 19 μM): 51 ± 18.5%
SEAP/vibility ([2]; 19 μM): 0.50
Relative SEAP activity (%) ([2]; 192 μM): 48 ± 23.1%
SEAP/vibility ([2]; 192 μM): 0.46
Relative SEAP activity (%) ([3]; 1.9 μM): 93 ± 5.6%
SEAP/vibility ([3]; 1.9 μM): 1.06
Relative SEAP activity (%) ([3]; 19 μM): 99 ± 5.4%
SEAP/vibility ([3]; 19 μM): 1.17
Relative SEAP activity (%) ([3]; 192 μM): 99 ± 1.8%
SEAP/vibility ([3]; 192 μM): 1.44
Relative MTT viability (%) ([4]; 1.9 μM): 87 ± 3.7%
Relative MTT viability (%) ([4]; 19 μM): 85 ± 7.1%
Relative MTT viability (%) ([4]; 192 μM): 69 ± 8.4%
Relative MTT viability (%) (hTERT-BJ1 cells; 1.9 μM): 104 ± 5.6%
Relative MTT viability (%) (hTERT-BJ1 cells; 19 μM): 101 ± 4.4%
Relative MTT viability (%) (hTERT-BJ1 cells; 192 μM): 103 ± 6.1%

O=C1c2ccccc2C(=O)c2c(NC(=O)C3CCCC3)ccc(NC(=O)C3CCCC3)c21 [VI20, 1,4-Bis(cyclopentaneamido)-9,110-anthracenedione]
IC50 (human hepatoma G2 cells): > 20 µM
IC50 (rat glioma C6 cells): > 20 µM
IC50 [1]: > 20 µM
Relative SEAP activity (%) ([2]; 2.3 μM): 85 ± 7.7%
SEAP/vibility ([2]; 2.3 μM): 0.81
Relative SEAP activity (%) ([2]; 23 μM): 93 ± 18.5%
SEAP/vibility ([2]; 23 μM): 0.90
Relative SEAP activity (%) ([2]; 233 μM): 63 ± 36.5%
SEAP/vibility ([2]; 233 μM): 0.67
Relative SEAP activity (%) ([3]; 2.3 μM): 119 ± 8.5%
SEAP/vibility ([3]; 2.3 μM): 1.11
Relative SEAP activity (%) ([3]; 23 μM): 118 ± 9.2%
SEAP/vibility ([3]; 23 μM): 1.15
Relative SEAP activity (%) ([3]; 233 μM): 113 ± 8.9%
SEAP/vibility ([3]; 233 μM): 1.23
Relative MTT viability (%) ([4]; 2.3 μM): 107 ± 6.1%
Relative MTT viability (%) ([4]; 23 μM): 103 ± 6.1%
Relative MTT viability (%) ([4]; 233 μM): 92 ± 8.6%
Relative MTT viability (%) (hTERT-BJ1 cells; 2.3 μM): 106 ± 2.3%
Relative MTT viability (%) (hTERT-BJ1 cells; 23 μM): 103 ± 4.4%
Relative MTT viability (%) (hTERT-BJ1 cells; 233 μM): 93 ± 5.7%

O=C1c2ccccc2C(=O)c2c(NC(=O)C3CC3)ccc(NC(=O)C3CC3)c21 [VI21, 1,4-Bis(cyclopropionamido)-9,10-anthracenedione]
IC50 (human hepatoma G2 cells): > 20 µM
IC50 (rat glioma C6 cells): > 20 µM
IC50 [1]: > 20 µM
Relative SEAP activity (%) ([2]; 2.6 μM): 64 ± 9.5%
SEAP/vibility ([2]; 2.6 μM): 0.62
Relative SEAP activity (%) ([2]; 26 μM): 54 ± 8.8%
SEAP/vibility ([2]; 26 μM): 0.66
Relative SEAP activity (%) ([2]; 267 μM): 43 ± 8.3%
SEAP/vibility ([2]; 267 μM): 0.74
Relative SEAP activity (%) ([3]; 2.6 μM): 108 ± 4.9%
SEAP/vibility ([3]; 2.6 μM): 1.14
Relative SEAP activity (%) ([3]; 26 μM): 106 ± 7.3%
SEAP/vibility ([3]; 26 μM): 1.21
Relative SEAP activity (%) ([3]; 267 μM): 92 ± 5.9%
SEAP/vibility ([3]; 267 μM): 2.23
Relative MTT viability (%) ([4]; 2.6 μM): 95 ± 4.2%
Relative MTT viability (%) ([4]; 26 μM): 88 ± 4.2%
Relative MTT viability (%) ([4]; 267 μM): 41 ± 4.6%
Relative MTT viability (%) (hTERT-BJ1 cells; 2.6 μM): 103 ± 6.8%
Relative MTT viability (%) (hTERT-BJ1 cells; 26 μM): 82 ± 5.9%
Relative MTT viability (%) (hTERT-BJ1 cells; 267 μM): 58 ± 4.1%

O=C(Nc1ccc(NC(=O)c2cc(F)cc(Cl)c2Cl)c2c1C(=O)c1ccccc1C2=O)c1cc(F)cc(Cl)c1Cl [VI23]
IC50 (human hepatoma G2 cells): > 20 µM
IC50 (rat glioma C6 cells): > 20 µM
IC50 [1]: > 20 µM
Relative SEAP activity (%) ([2]; 1.6 μM): 113 ± 16.0%
SEAP/vibility ([2]; 1.6 μM): 1.02
Relative SEAP activity (%) ([2]; 16 μM): 131 ± 19.1%
SEAP/vibility ([2]; 16 μM): 1.20
Relative SEAP activity (%) ([2]; 161 μM): 106 ± 17.3%
SEAP/vibility ([2]; 161 μM): 1.05
Relative SEAP activity (%) ([3]; 1.6 μM): 102 ± 4.1%
SEAP/vibility ([3]; 1.6 μM): 1.04
Relative SEAP activity (%) ([3]; 16 μM): 102 ± 5.1%
SEAP/vibility ([3]; 16 μM): 0.99
Relative SEAP activity (%) ([3]; 161 μM): 83 ± 4.0%
SEAP/vibility ([3]; 161 μM): 0.95
Relative MTT viability (%) ([4]; 1.6 μM): 98 ± 7.0%
Relative MTT viability (%) ([4]; 16 μM): 103 ± 8.7%
Relative MTT viability (%) ([4]; 161 μM): 87 ± 5.1%
Relative MTT viability (%) (hTERT-BJ1 cells; 1.6 μM): 111 ± 6.8%
Relative MTT viability (%) (hTERT-BJ1 cells; 16 μM): 110 ± 7.1%
Relative MTT viability (%) (hTERT-BJ1 cells; 161 μM): 101 ± 6.6%

Reference: patent US20050009924A1 (priority 2003, published 2005)
